Laboratory results: patent US11117900B2 (Vertex Pharmaceuticals Incorporated, priority 2012, dated 2021)

Test system: HCT116 colorectal cancer cells
Assay: Cisplatin sensitization assay (96 h MTS cell viability);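 also: compound concentration needed to lower the IC50 of Cisplatin alone by a set fold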
Type: cell-based
Conditions: Cisplatin sensitization value
In short: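 HCT116 cells were dosed simultaneously with compound and cisplatin as a full matrix of 2-fold serial dilutions from 10 μM top final concentration. Incubation was 96 h at 37° C., 5% CO2, followed by 1 h with MTS reagent for the viability read-out. Sensitization values were binned into +++, ++ and + categories.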

Row | SMILES | Cisplatin Sensitization Assay
1 | CN1CCN(c2c(F)cncc2NC(=O)c2c(N)nn3cc(CC#N)cnc23)CC1 [I-N-80, 2-amino-6-(cyanomethyl)-N-(5-fluoro-4-(4-methylpiperazin-1-yl)pyridin-3-yl)pyrazolo[1,5-a]pyrimidine-3-carboxamide] | ++ (Compounds with a Cisplatin sensitization value >0.02 μM but <0.2 μM are marked with “++.”)
2 | N#CCc1cnc2c(C(=O)Nc3cnccc3N3CCOCC3)c(N)nn2c1 [I-N-81, 2-amino-6-(cyanomethyl)-N-(4-morpholinopyridin-3-yl)pyrazolo[1,5-a]pyrimidine-3-carboxamide] | +++ (Compounds with a Cisplatin sensitization value of <0.02 μM are marked with “+++.”)
3 | CN1CCN(c2ccncc2NC(=O)c2c(N)nn3cc(CC#N)cnc23)CC1 [I-N-82, 2-amino-6-(cyanomethyl)-N-(4-(4-methylpiperazin-1-yl)pyridin-3-yl)pyrazolo[1,5-a]pyrimidine-3-carboxamide] | ++ (Compounds with a Cisplatin sensitization value >0.02 μM but <0.2 μM are marked with “++.”)
4 | N#CCc1cnc2c(C(=O)Nc3cnccc3N3CCC(O)CC3)c(N)nn2c1 [I-N-83, 2-amino-6-(cyanomethyl)-N-(4-(4-hydroxypiperidin-1-yl)pyridin-3-yl)pyrazolo[1,5-a]pyrimidine-3-carboxamide] | ++ (Compounds with a Cisplatin sensitization value >0.02 μM but <0.2 μM are marked with “++.”)
5 | N#CCc1cnc2c(C(=O)Nc3cnccc3N3CCCCC3)c(N)nn2c1 [I-N-84, 2-amino-6-(cyanomethyl)-N-(4-(piperidin-1-yl)pyridin-3-yl)pyrazolo[1,5-a]pyrimidine-3-carboxamide] | +++ (Compounds with a Cisplatin sensitization value of <0.02 μM are marked with “+++.”)
6 | CN1CCN(c2c(Cl)cncc2NC(=O)c2c(N)nn3cc(F)cnc23)CC1 [I-N-85, 2-amino-N-(5-chloro-4-(4-methylpiperazin-1-yl)pyridin-3-yl)-6-fluoropyrazolo[1,5-a]pyrimidine-3-carboxamide] | ++ (Compounds with a Cisplatin sensitization value >0.02 μM but <0.2 μM are marked with “++.”)
7 | Nc1nn2cc(Cl)cnc2c1C(=O)Nc1cnccc1N1CCC(N)CC1 [I-N-86, 2-amino-N-(4-(4-aminopiperidin-1-yl)pyridin-3-yl)-6-chloropyrazolo[1,5-a]pyrimidine-3-carboxamide] | +++ (Compounds with a Cisplatin sensitization value of <0.02 μM are marked with “+++.”)
8 | CNC1CCN(c2ccncc2NC(=O)c2c(N)nn3cc(Cl)cnc23)CC1 [I-N-87, 2-amino-6-chloro-N-(4-(4-(methylamino)piperidin-1-yl)pyridin-3-yl)pyrazolo[1,5-a]pyrimidine-3-carboxamide] | ++ (Compounds with a Cisplatin sensitization value >0.02 μM but <0.2 μM are marked with “++.”)
9 | Nc1nn2cc(Cl)cnc2c1C(=O)Nc1cnccc1N1CCNCC1 [I-N-88, 2-amino-6-chloro-N-(4-(piperazin-1-yl)pyridin-3-yl)pyrazolo[1,5-a]pyrimidine-3-carboxamide] | ++ (Compounds with a Cisplatin sensitization value >0.02 μM but <0.2 μM are marked with “++.”)
10 | N#CCc1cnc2c(C(=O)Nc3cnccc3N3CCNCC3)c(N)nn2c1 [I-N-89, 2-amino-6-(cyanomethyl)-N-(4-(piperazin-1-yl)pyridin-3-yl)pyrazolo[1,5-a]pyrimidine-3-carboxamide] | ++ (Compounds with a Cisplatin sensitization value >0.02 μM but <0.2 μM are marked with “++.”)
11 | N#CCc1cnc2c(C(=O)Nc3cnccc3N3CCOC(CN)C3)c(N)nn2c1 (stereo not drawn) [I-N-90, 2-amino-N-(4-(2-(aminomethyl)morpholino)pyridin-3-yl)-6-(cyanomethyl)pyrazolo[1,5-a]pyrimidine-3-carboxamide] | + (Compounds with a Cisplatin sensitization value >0.2 μM but <5 μM are marked with “+.”)
12 | NCC1CCN(c2ccncc2NC(=O)c2c(N)nn3cc(Cl)cnc23)CC1 [I-N-91, 2-amino-N-(4-(4-(aminomethyl)piperidin-1-yl)pyridin-3-yl)-6-chloropyrazolo[1,5-a]pyrimidine-3-carboxamide] | ++ (Compounds with a Cisplatin sensitization value >0.02 μM but <0.2 μM are marked with “++.”)
13 | Nc1nn2cc(F)cnc2c1C(=O)Nc1cncc(F)c1N1CCC(C(=O)O)CC1 [I-N-92, 1-(3-(2-amino-6-fluoropyrazolo[1,5-a]pyrimidine-3-carboxamido)-5-fluoropyridin-4-yl)piperidine-4-carboxylic acid] | + (Compounds with a Cisplatin sensitization value >0.2 μM but <5 μM are marked with “+.”)
14 | CN(C)C1CN(C2CCN(c3ccncc3NC(=O)c3c(N)nn4cc(Cl)cnc34)CC2)C1 [I-N-94, 2-amino-6-chloro-N-(4-(4-(3-(dimethylamino)azetidin-1-yl)piperidin-1-yl)pyridin-3-yl)pyrazolo[1,5-a]pyrimidine-3-carboxamide] | +++ (Compounds with a Cisplatin sensitization value of <0.02 μM are marked with “+++.”)
15 | COC1CCN(C2CCN(c3ccncc3NC(=O)c3c(N)nn4cc(Cl)cnc34)CC2)C1 (stereo not drawn) [I-N-95, 2-amino-6-chloro-N-(4-(4-(3-methoxypyrrolidin-1-yl)piperidin-1-yl)pyridin-3-yl)pyrazolo[1,5-a]pyrimidine-3-carboxamide] | ++ (Compounds with a Cisplatin sensitization value >0.02 μM but <0.2 μM are marked with “++.”)
16 | CN1CCN(C2CCN(c3ccncc3NC(=O)c3c(N)nn4cc(Cl)cnc34)CC2)CC1 [I-N-97, 2-amino-6-chloro-N-(4-(4-(4-methylpiperazin-1-yl)piperidin-1-yl)pyridin-3-yl)pyrazolo[1,5-a]pyrimidine-3-carboxamide] | +++ (Compounds with a Cisplatin sensitization value of <0.02 μM are marked with “+++.”)
17 | Nc1nn2cc(Cl)cnc2c1C(=O)Nc1cnccc1N1CCC(N2CCC3(COC3)C2)CC1 [I-N-99, N-(4-(4-(2-oxa-6-azaspiro[3.4]octan-6-yl)piperidin-1-yl)pyridin-3-yl)-2-amino-6-chloropyrazolo[1,5-a]pyrimidine-3-carboxamide] | +++ (Compounds with a Cisplatin sensitization value of <0.02 μM are marked with “+++.”)
18 | Nc1nn2cc(Cl)cnc2c1C(=O)Nc1cnccc1N1CCC(N2CC[S+]([O-])CC2)CC1 [I-N-100, 2-amino-6-chloro-N-(4-(4-(1-oxidothiomorpholino)piperidin-1-yl)pyridin-3-yl)pyrazolo[1,5-a]pyrimidine-3-carboxamide] | ++ (Compounds with a Cisplatin sensitization value >0.02 μM but <0.2 μM are marked with “++.”)
19 | Nc1nn2cc(Cl)cnc2c1C(=O)Nc1cnccc1N1CCC(N2CCn3cncc3C2)CC1 [I-N-101, 2-amino-6-chloro-N-(4-(4-(5,6-dihydroimidazo[1,5-a]pyrazin-7(8H)-yl)piperidin-1-yl)pyridin-3-yl)pyrazolo[1,5-a]pyrimidine-3-carboxamide] | ++ (Compounds with a Cisplatin sensitization value >0.02 μM but <0.2 μM are marked with “++.”)
20 | Nc1nn2cc(Cl)cnc2c1C(=O)Nc1cnccc1N1CCC(N2CCn3ccnc3C2)CC1 [I-N-102, 2-amino-6-chloro-N-(4-(4-(5,6-dihydroimidazo[1,2-a]pyrazin-7(8H)-yl)piperidin-1-yl)pyridin-3-yl)pyrazolo[1,5-a]pyrimidine-3-carboxamide] | ++ (Compounds with a Cisplatin sensitization value >0.02 μM but <0.2 μM are marked with “++.”)
21 | Nc1nn2cc(Cl)cnc2c1C(=O)Nc1cnccc1N1CCC(N2CC[C@H](F)C2)CC1 [I-N-103, (S)-2-amino-6-chloro-N-(4-(4-(3-fluoropyrrolidin-1-yl)piperidin-1-yl)pyridin-3-yl)pyrazolo[1,5-a]pyrimidine-3-carboxamide] | +++ (Compounds with a Cisplatin sensitization value of <0.02 μM are marked with “+++.”)
22 | Nc1nn2cc(Cl)cnc2c1C(=O)Nc1cnccc1N1CCC(N2CCOCC2)CC1 [I-N-104, 2-amino-6-chloro-N-(4-(4-morpholinopiperidin-1-yl)pyridin-3-yl)pyrazolo[1,5-a]pyrimidine-3-carboxamide] | +++ (Compounds with a Cisplatin sensitization value of <0.02 μM are marked with “+++.”)
23 | Nc1nn2cc(Cl)cnc2c1C(=O)Nc1cnccc1N1CCC(N2CCCC2)CC1 [I-N-105, 2-amino-6-chloro-N-(4-(4-(pyrrolidin-1-yl)piperidin-1-yl)pyridin-3-yl)pyrazolo[1,5-a]pyrimidine-3-carboxamide] | +++ (Compounds with a Cisplatin sensitization value of <0.02 μM are marked with “+++.”)
24 | CN(C)C1CCN(C2CCN(c3ccncc3NC(=O)c3c(N)nn4cc(Cl)cnc34)CC2)C1 (stereo not drawn) [I-N-106, 2-amino-6-chloro-N-(4-(4-(3-(dimethylamino)pyrrolidin-1-yl)piperidin-1-yl)pyridin-3-yl)pyrazolo[1,5-a]pyrimidine-3-carboxamide] | +++ (Compounds with a Cisplatin sensitization value of <0.02 μM are marked with “+++.”)
25 | COC1CN(C2CCN(c3ccncc3NC(=O)c3c(N)nn4cc(Cl)cnc34)CC2)C1 [I-N-107, 2-amino-6-chloro-N-(4-(4-(3-methoxyazetidin-1-yl)piperidin-1-yl)pyridin-3-yl)pyrazolo[1,5-a]pyrimidine-3-carboxamide] | +++ (Compounds with a Cisplatin sensitization value of <0.02 μM are marked with “+++.”)
26 | Nc1nn2cc(Cl)cnc2c1C(=O)Nc1cnccc1N1CCC(N2CC(F)(F)C2)CC1 [I-N-108, 2-amino-6-chloro-N-(4-(4-(3,3-difluoroazetidin-1-yl)piperidin-1-yl)pyridin-3-yl)pyrazolo[1,5-a]pyrimidine-3-carboxamide] | +++ (Compounds with a Cisplatin sensitization value of <0.02 μM are marked with “+++.”)
27 | Nc1nn2cc(Cl)cnc2c1C(=O)Nc1cnccc1N1CCC(N2CCC23COC3)CC1 [I-N-109, N-(4-(4-(6-oxa-1-azaspiro[3.3]heptan-1-yl)piperidin-1-yl)pyridin-3-yl)-2-amino-6-chloropyrazolo[1,5-a]pyrimidine-3-carboxamide] | +++ (Compounds with a Cisplatin sensitization value of <0.02 μM are marked with “+++.”)
